From patent publication US4401604A, “Process for preparing thiosulfenamide derivatives of N-phosphonomethylglycine triesters” (Monsanto Company, priority 1981, dated 1983)

Columns and labels:
Assay in all cases: Post-emergence herbicidal activity, greenhouse
Assay type in all cases: in vivo
[1] = tested on: Wheat; details: Table II
Procedure, shortened: (§1)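 Read-out: visual injury index vs untreated controls, ~2 and ~4 WAT (2-wk reading sometimes omitted). Foliar atomizer spray at ~1.46 kg/cm^2 onto 2–3-wk-old greenhouse plants; test compound diluted from 1.0% w/w stock, ~0.4% w/w emulsifier in spray.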

[2] = tested on: Velvetleaf
Procedure, shortened: as §1

[3] = tested on: Lambsquarters
Procedure, shortened: as §1

[4] = tested on: Barnyardgrass
Procedure, shortened: as §1

[5] = tested on: Soybean; details: Table II
Procedure, shortened: as §1

[6] = tested on: Yellow Nutsedge; details: Table I, 4 WAT
Procedure, shortened: as §1

[7] = tested on: Morningglory
Procedure, shortened: as §1

[8] = tested on: Crabgrass; details: Table II
Procedure, shortened: as §1

SMILES: COC(=O)CN(CP(=O)(Oc1ccccc1)Oc1ccccc1)SSC(C)C [I, Glycine, N-[(diphenoxyphosphinyl)methyl]-N-[(1-methylethyl)dithio]-, methyl ester]
- post-emergence herbicidal activity index ([1]; 0.056 kg/h, 2 WAT): 0 (0- 24% control)
- post-emergence herbicidal activity index ([1]; 0.28 kg/h, 2 WAT): 0 (0- 24% control)
- post-emergence herbicidal activity index ([1]; 1.12 kg/h, 4 WAT): 1 (25-49% control)
- post-emergence herbicidal activity index ([1]; 5.6 kg/h, 4 WAT): 3 (75-99% control)
- post-emergence herbicidal activity index ([1]; 11.2 kg/h, 4 WAT): 0 (0- 24% control)
- post-emergence herbicidal activity index ([2]; Table I, 5.6 kg/h, 4 WAT): 3 (75-99% control)
- post-emergence herbicidal activity index ([2]; Table I, 11.2 kg/h, 4 WAT): 4 (100% control)
- post-emergence herbicidal activity index ([2]; Table II, 0.056 kg/h, 2 WAT): 0 (0- 24% control)
- post-emergence herbicidal activity index ([2]; Table II, 0.28 kg/h, 2 WAT): 1 (25-49% control)
- post-emergence herbicidal activity index ([2]; Table II, 1.12 kg/h, 4 WAT): 2 (50-74% control)
- post-emergence herbicidal activity index ([2]; Table II, 5.6 kg/h, 4 WAT): 4 (100% control)
- post-emergence herbicidal activity index ([2]; Table II, 11.2 kg/h, 4 WAT): 1 (25-49% control)
- post-emergence herbicidal activity index ([3]; Table I, 5.6 kg/h, 4 WAT): 3 (75-99% control)
- post-emergence herbicidal activity index ([3]; Table I, 11.2 kg/h, 4 WAT): 4 (100% control)
- post-emergence herbicidal activity index ([3]; Table II, 0.056 kg/h, 2 WAT): 0 (0- 24% control)
- post-emergence herbicidal activity index ([3]; Table II, 0.28 kg/h, 2 WAT): 0 (0- 24% control)
- post-emergence herbicidal activity index ([3]; Table II, 1.12 kg/h, 4 WAT): 3 (75-99% control)
- post-emergence herbicidal activity index ([3]; Table II, 5.6 kg/h, 4 WAT): 4 (100% control)
- post-emergence herbicidal activity index ([3]; Table II, 11.2 kg/h, 4 WAT): 3 (75-99% control)
- post-emergence herbicidal activity index ([4]; Table I, 5.6 kg/h, 4 WAT): 4 (100% control)
- post-emergence herbicidal activity index ([4]; Table I, 11.2 kg/h, 4 WAT): 4 (100% control)
- post-emergence herbicidal activity index ([4]; Table II, 0.056 kg/h, 2 WAT): 0 (0- 24% control)
- post-emergence herbicidal activity index ([4]; Table II, 0.28 kg/h, 2 WAT): 1 (25-49% control)
- post-emergence herbicidal activity index ([4]; Table II, 1.12 kg/h, 4 WAT): 2 (50-74% control)
- post-emergence herbicidal activity index ([4]; Table II, 5.6 kg/h, 4 WAT): 4 (100% control)
- post-emergence herbicidal activity index ([4]; Table II, 11.2 kg/h, 4 WAT): 3 (75-99% control)
- post-emergence herbicidal activity index ([5]; 0.056 kg/h, 2 WAT): 0 (0- 24% control)
- post-emergence herbicidal activity index ([5]; 0.28 kg/h, 2 WAT): 0 (0- 24% control)
- post-emergence herbicidal activity index ([5]; 1.12 kg/h, 4 WAT): 1 (25-49% control)
- post-emergence herbicidal activity index ([5]; 5.6 kg/h, 4 WAT): 3 (75-99% control)
- post-emergence herbicidal activity index ([5]; 11.2 kg/h, 4 WAT): 0 (0- 24% control)
- post-emergence herbicidal activity index ([6]; 5.6 kg/h): 3 (75-99% control)
- post-emergence herbicidal activity index ([6]; 11.2 kg/h): 3 (75-99% control)
- post-emergence herbicidal activity index ([7]; Table I, 5.6 kg/h, 4 WAT): 4 (100% control)
- post-emergence herbicidal activity index ([7]; Table I, 11.2 kg/h, 4 WAT): 3 (75-99% control)
- post-emergence herbicidal activity index ([7]; Table II, 0.056 kg/h, 2 WAT): 0 (0- 24% control)
- post-emergence herbicidal activity index ([7]; Table II, 0.28 kg/h, 2 WAT): 0 (0- 24% control)
- post-emergence herbicidal activity index ([7]; Table II, 1.12 kg/h, 4 WAT): 2 (50-74% control)
- post-emergence herbicidal activity index ([7]; Table II, 5.6 kg/h, 4 WAT): 3 (75-99% control)
- post-emergence herbicidal activity index ([7]; Table II, 11.2 kg/h, 4 WAT): 1 (25-49% control)
- post-emergence herbicidal activity index ([8]; 0.056 kg/h, 2 WAT): 0 (0- 24% control)
- post-emergence herbicidal activity index ([8]; 0.28 kg/h, 2 WAT): 0 (0- 24% control)
- post-emergence herbicidal activity index ([8]; 1.12 kg/h, 4 WAT): 3 (75-99% control)
- post-emergence herbicidal activity index ([8]; 5.6 kg/h, 4 WAT): 4 (100% control)
- post-emergence herbicidal activity index ([8]; 11.2 kg/h, 4 WAT): 3 (75-99% control)
